Test results: US11780826B2 (Amgen Inc., priority 2017, dated 2023)

What follows are compounds tested on Bovine cardiac myofibrils (assay: In vitro model of dose-dependent myofibril ATPase modulation (AC1.4, pyruvate kinase/lactate dehydrogenase-coupled ATPase assay at pCa25)). Settings: concentration at which ATPase activity was 1.4-fold higher than the bottom of the dose curve, mean of a minimum of two independent tests.
Format: biochemical
How it was run: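 Absorbance at 340 nm tracked ATP hydrolysis through pyruvate kinase/lactate dehydrogenase coupling (0.5 mM NADH, 1.5 mM PEP). Myofibrils from detergent-homogenized bovine heart, 1 mM ATP, pH 6.80, EGTA/CaCl2 buffering. Dose-response curves fitted with a four-parameter Hill equation.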

Row | SMILES | AC1.4
1 | CS(=O)(=O)c1cccc(C(=O)N2[C@@H](C(=O)N[C@@H](c3ccc(C(F)(F)F)cc3F)C3CCC3)C[C@H]3C[C@H]32)c1 [Example 161, (1R,3R,5R)-N-((R)-cyclobutyl(2-fluoro-4-(trifluoromethyl)phenyl)methyl)-2-(3-(methylsulfonyl)benzoyl)-2-azabicyclo[3.1.0]hexane-3-carboxamide] | 0.2746 µM
2 | N#CC1CN(S(=O)(=O)N2CCC[C@H](C(=O)N3CCC[C@@H]3C(=O)NCc3ccc(Cl)cc3)C2)C1 [Example 164, N-(4-chlorobenzyl)-1-(((3S)-1-((3-cyano-1-azetidinyl)sulfonyl)-3-piperidinyl)carbonyl)-D-prolinamide] | 0.2785 µM
3 | CC[C@H](NC(=O)[C@H]1CCCN1C(=O)c1cccc(S(=O)(=O)N2CC(C#N)C2)c1)c1cc(F)cc(F)c1 [Example 165, 1-(3-((3-cyano-1-azetidinyl)sulfonyl)benzoyl)-N-((1S)-1-(3,5-difluorophenyl)propyl)-D-prolinamide] | 0.2792 µM
4 | N#CC1CN(S(=O)(=O)N2CCC(F)=C(C(=O)N3CCC[C@@H]3C(=O)NCc3ccc(C(F)(F)F)cc3)C2)C1 [Example 168, 1-((1-((3-cyano-1-azetidinyl)sulfonyl)-4-fluoro-l,2,5,6-tetrahydro-3-pyridinyl)carbonyl)-N-(4-(trifluoromethyl)benzyl)-D-prolinamide] | 0.2875 µM
5 | O=C(N[C@@H](c1cc(F)c(Cl)cc1F)C1COC1)[C@H]1C[C@H]2C[C@H]2N1C(=O)c1ccnc(C(F)(F)F)c1 [Example 171, (1R,3R,5R)-N-((R)-(4-chloro-2,5-difluorophenyl)(3-oxetanyl)methyl)-2-((2-(trifluoromethyl)-4-pyridinyl)carbonyl)-2-azabicyclo[3.1.0]hexane-3-carboxamide] | 0.2934 µM
6 | N#CC1CN(S(=O)(=O)N2C[C@H]3C[C@@H]2[C@H](C(=O)N2CCC[C@@H]2C(=O)NCc2ccc(C(F)(F)F)cc2)C3)C1 [Example 172, 1-(((1R,4R,6R)-2-((3-cyano-1-azetidinyl)sulfonyl)-2-azabicyclo[2.2.1]hept-6-yl)carbonyl)-N-(4-(trifluoromethyl)benzyl)-D-prolinamide] | 0.2959 µM
7 | CS(=O)(=O)c1cccc(C(=O)N2C[C@@H](F)C[C@@H]2C(=O)N[C@@H](c2cc(F)c(C(F)(F)F)cc2F)C2CC2)c1 [Example 173, (4S)-N-((R)-cyclopropyl(2,5-difluoro-4-(trifluoromethyl)phenyl)methyl)-4-fluoro-1-(3-(methylsulfonyl)benzoyl)-D-prolinamide] | 0.3001 µM
8 | COc1cc(Cl)ccc1CNC(=O)[C@H]1CCCN1C(=O)[C@H]1CCCN(S(=O)(=O)N2CC(C#N)C2)C1 [Example 176, N-(4-chloro-2-methoxybenzyl)-1-(((3S)-1-((3-cyano-1-azetidinyl)sulfonyl)-3-piperidinyl)carbonyl)-D-prolinamide] | 0.3085 µM
9 | N#CC1CN(S(=O)(=O)N2CCC[C@H](C(=O)N3C[C@@H]4C[C@@H]4[C@@H]3C(=O)NCc3ccc(C(F)(F)F)cc3)C2)C1 [Example 177, (1S,2R,5R)-3-(((3S)-1-((3-cyano-1-azetidinyl)sulfonyl)-3-piperidinyl)carbonyl)-N-(4-(trifluoromethyl)benzyl)-3-azabicyclo[3.1.0]hexane-2-carboxamide] | 0.3113 µM
10 | CS(=O)(=O)c1cccc(C(=O)N2CCC[C@@H]2C(=O)N[C@@H](c2ccc(C(F)(F)F)c(F)c2)C2COC2)c1 [Example 179, N-((R)-(3-fluoro-4-(trifluoromethyl)phenyl)(3-oxetanyl)methyl)-1-(3-(methylsulfonyl)benzoyl)-D-prolinamide] | 0.3231 µM
11 | O=C(NCc1ccc(C(F)(F)F)cc1)[C@H]1CCCN1C(=O)[C@H]1CCCN(S(=O)(=O)N2CCC2c2cccc(Br)c2)C1 (stereo partly drawn) [Example 180, 1-(((3S)-1-((-2-(3-bromophenyl)-1-azetidinyl)sulfonyl)-3-piperidinyl)carbonyl)-N-(4-(trifluoromethyl)benzyl)-D-prolinamide] | 0.3256 µM
12 | Cc1ccc(CNC(=O)[C@H]2CCCN2C(=O)[C@H]2CCCN(S(=O)(=O)N3CC(C#N)C3)C2)c(F)c1 [Example 181, 1-(((3S)-1-((3-cyano-1-azetidinyl)sulfonyl)-3-piperidinyl)carbonyl)-N-(2-fluoro-4-methylbenzyl)-D-prolinamide] | 0.3278 µM
13 | N#CC1CN(S(=O)(=O)N2CCCC(F)(C(=O)N3CCC[C@@H]3C(=O)NCc3ccc(C(F)(F)F)cc3)C2)C1 (stereo partly drawn) [Example 183, 1-((-1-((3-cyano-1-azetidinyl)sulfonyl)-3-fluoro-3-piperidinyl)carbonyl)-N-(4-(trifluoromethyl)benzyl)-D-prolinamide] | 0.3361 µM

Further lines, results first:

Row | AC1.4 | SMILES
14 | 0.2735 µM | CS(=O)(=O)c1ccnc(C(=O)N2CCCC[C@@H]2C(=O)N[C@@H](c2cc(F)c(Cl)cc2F)C2CC2)c1 [Example 159, (2R)-N-((R)-(4-chloro-2,5-difluorophenyl)(cyclopropyl)methyl)-1-((4-(methylsulfonyl)-2-pyridinyl)carbonyl)-2-piperidinecarboxamide]
15 | 0.274 µM | CCS(=O)(=O)c1cncc(C(=O)N2[C@@H](C(=O)N[C@@H](c3cc(F)c(Cl)cc3F)C3CC3)C[C@H]3C[C@H]32)c1 [Example 160, (1R,3R,5R)-N-((R)-(4-chloro-2,5-difluorophenyl)(cyclopropyl)methyl)-2-((5-(ethylsulfonyl)-3-pyridinyl)carbonyl)-2-azabicyclo[3.1.0]hexane-3-carboxamide]
16 | 0.2767 µM | CN(Cc1ccc(Cl)cc1)C(=O)C1CCCN1C(=O)c1cccc(S(=O)(=O)N2CC(C#N)C2)c1 (stereo not drawn) [Example 162, N-(4-chlorobenzyl)-1-((3-((3-cyano-1-azetidinyl)sulfonyl)phenyl)carbonyl)-N-methyl-prolinamide]
17 | 0.2773 µM | O=C(N[C@@H](c1cc(F)c(Cl)cc1F)C1CC1)[C@H]1C[C@H]2C[C@H]2N1C(=O)c1cncc(S(=O)(=O)C2CC2)c1 [Example 163, (1R,3R,5R)-N-((R)-(4-chloro-2,5-difluorophenyl)(cyclopropyl)methyl)-2-((5-(cyclopropylsulfonyl)-3-pyridinyl)carbonyl)-2-azabicyclo[3.1.0]hexane-3-carboxamide]
18 | 0.2807 µM | O=C(NCc1ccc(C(F)(F)F)cc1)[C@H]1CCCN1C(=O)[C@H]1CCCN(S(=O)(=O)N2CCC2c2cccc(F)c2)C1 (stereo partly drawn) [Example 166, 1-(((3S)-1-((-2-(3-fluorophenyl)-1-azetidinyl)sulfonyl)-3-piperidinyl)carbonyl)-N-(4-(trifluoromethyl)benzyl)-D-prolinamide]
19 | 0.2892 µM | N#CC1CN(S(=O)(=O)N2CCC[C@H](C(=O)N3CCC[C@@H]3C(=O)N[C@H](CO)c3ccc(Cl)cc3)C2)C1 [Example 169, N-((1S)-1-(4-chlorophenyl)-2-hydroxyethyl)-1-(((3S)-1-((3-cyano-1-azetidinyl)sulfonyl)-3-piperidinyl)carbonyl)-D-prolinamide]
20 | 0.3052 µM | N#CC1CN(S(=O)(=O)N2CCN[C@H](C(=O)N3CCC[C@@H]3C(=O)NCc3ccc(Cl)c(F)c3)C2)C1 [Example 174, N-(4-chloro-3-fluorobenzyl)-1-(((2S)-4-((3-cyano-1-azetidinyl)sulfonyl)-2-piperazinyl)carbonyl)-D-prolinamide]
21 | 0.3064 µM | C[C@@H](NC(=O)[C@H]1COCCN1C(=O)[C@H]1CCCN(S(=O)(=O)N2CC(C#N)C2)C1)c1ccc(C(F)(F)F)cc1 [Example 175, (3R)-4-(((3S)-1-((3-cyano-1-azetidinyl)sulfonyl)-3-piperidinyl)carbonyl)-N-((1R)-1-(4-(trifluoromethyl)phenyl)ethyl)-3-morpholinecarboxamide]
22 | 0.314 µM | CCS(=O)(=O)c1cccc(C(=O)N2[C@@H](C(=O)N[C@@H](c3cc(F)c(C(F)F)cc3F)C3CC3)C[C@H]3C[C@H]32)c1 [Example 178, (1R,3R,5R)-N-((R)-cyclopropyl(4-(difluoromethyl)-2,5-difluorophenyl)methyl)-2-(3-(ethylsulfonyl)benzoyl)-2-azabicyclo[3.1.0]hexane-3-carboxamide]
23 | 0.3365 µM | NC(=O)C1(c2cccc(C(=O)N3[C@@H](C(=O)N[C@@H](c4cc(F)c(Cl)cc4F)C4COC4)C[C@H]4C[C@H]43)c2)CC1 [Example 184, (1R,3R,5R)-2-(3-(1-carbamoylcyclopropyl)benzoyl)-N-((R)-(4-chloro-2,5-difluorophenyl)(3-oxetanyl)methyl)-2-azabicyclo[3.1.0]hexane-3-carboxamide]
24 | 0.3371 µM | CC(C)[C@@H](NC(=O)[C@H]1CCCN1C(=O)c1cccc(S(=O)(=O)N(C)C)c1)c1ccc(C(F)(F)F)cc1F [Example 185, 1-(3-(dimethylsulfamoyl)benzoyl)-N-((1R)-1-(2-fluoro-4-(trifluoromethyl)phenyl)-2-methylpropyl)-D-prolinamide]
25 | 0.3372 µM | CC(C)(C)Nc1ccc(S(C)(=O)=O)cc1C(=O)N1CCC[C@@H]1C(=O)N[C@@H](c1ccc(C(F)(F)F)cc1F)C1CC1 [Example 186, N-((R)-cyclopropyl(2-fluoro-4-(trifluoromethyl)phenyl)methyl)-1-(2-((2-methyl-2-propanyl)amino)-5-(methylsulfonyl)benzoyl)-D-prolinamide]
26 | 0.3409 µM | N#CC1CN(S(=O)(=O)N2CCO[C@H](C(=O)N3CCC[C@@H]3C(=O)NCc3ccc(Cl)cc3F)C2)C1 [Example 187, N-(4-chloro-2-fluorobenzyl)-1-(((2S)-4-((3-cyano-1-azetidinyl)sulfonyl)-2-morpholinyl)carbonyl)-D-prolinamide]
27 | 0.3496 µM | N#CC1CN(S(=O)(=O)c2cccc(C(=O)N3CCC[C@@H]3C(=O)N[C@@H](CO)c3ccc(C(F)(F)F)cc3)c2)C1 [Example 188, 1-(3-((3-cyano-1-azetidinyl)sulfonyl)benzoyl)-N-((1R)-2-hydroxy-1-(4-(trifluoromethyl)phenyl)ethyl)-D-prolinamide]
